Publication PMC4182091, “A Common Minimal Motif for the Ligands of HLA-B*27 Class I Molecules” (PLoS ONE, 2014)
Like-named read-outs stand apart in the source and are kept apart here. Ends that are not written are not given here.

Legend:
Assay type in all cases: cell-based
HLA-B*2705 = target: T1, HLA-B*2705 (Homo sapiens, UniProt P01889, D138H/D201E/E176V/E204Q/G107R/H137Y/K202T/N104T/N87E/Q56L/Q94K/R106L/R155S/R180L/S101D/S121N/S48T/Y140D/Y33H/Y91C); assay: HLA/peptide complex stability assay, RMA-S cells transfected with HLA-B*2705; settings: for fluorescence index, B*2705: peptide 200 µM
T1 construct: expressed in transfected cells; host or cells: RMA-S (TAP-deficient murine cell line)

HLA-B*2703 = target: T2, HLA-B*2703 (Homo sapiens, UniProt P01889, D138H/D201E/E176V/E204Q/G107R/H137Y/K202T/N104T/N87E/Q56L/Q94K/R106L/R155S/R180L/S101D/S121N/S48T/Y140D/Y33H/Y83H/Y91C); assay: HLA/peptide complex stability assay, RMA-S cells transfected with HLA-B*2703; settings: for fluorescence index, B*2703: peptide 200 µM
T2 construct: expressed in transfected cells; host or cells: RMA-S (TAP-deficient murine cell line)

HLA-B*2704 = HLA-B*2704 (Homo sapiens, UniProt P01889, A235G/D138H/D201E/E204Q/G107R/H137Y/K202T/N104T/N87E/Q56L/Q94K/R106L/R155S/R180L/S121N/S48T/Y140D/Y33H/Y91C); assay: HLA/peptide complex stability assay, RMA-S cells transfected with HLA-B*2704; settings: for fluorescence index, B*2704: peptide 200 µM
HLA-B*2706 = target: T3, HLA-B*2706 (Homo sapiens, UniProt P01889, A235G/D201E/E204Q/G107R/H137Y/K202T/N104T/N87E/Q56L/Q94K/R106L/R155S/R180L/S121N/S48T/Y33H/Y91C); assay: HLA/peptide complex stability assay, RMA-S cells transfected with HLA-B*2706; settings: for fluorescence index, B*2706: peptide 200 µM
T3 construct: expressed in transfected cells; host or cells: RMA-S (TAP-deficient murine cell line)

HLA-B*2701 = target: T4, HLA-B*2701 (Homo sapiens, UniProt P01889, D138H/D201E/D98Y/E176V/E204Q/G107R/H137Y/K202T/L105A/N104T/N87E/Q56L/Q94K/R106L/R155S/R180L/S101N/S121N/S48T/Y140D/Y33H/Y91C); assay: HLA/peptide complex stability assay, RMA-S cells transfected with HLA-B*2701; settings: for fluorescence index, B*2701: peptide 200 µM
T4 construct: expressed in transfected cells; host or cells: RMA-S (TAP-deficient murine cell line)

HLA-B*2702 = HLA-B*2702 (Homo sapiens, UniProt P01889, D138H/D201E/E176V/E204Q/G107R/H137Y/K202T/L105A/N104I/N87E/Q56L/Q94K/R106L/R155S/R180L/S101N/S121N/S48T/Y140D/Y33H/Y91C); assay: HLA/peptide complex stability assay, RMA-S cells transfected with HLA-B*2702; settings: for fluorescence index, B*2702: peptide 200 µM
HLA-B*2709 = target: T5, HLA-B*2709 (Homo sapiens, UniProt P01889, D138H/D201E/E176V/E204Q/G107R/H137Y/K202T/N104T/N87E/Q56L/Q94K/R106L/R155S/R180L/S101D/S121N/S48T/Y140H/Y33H/Y91C); assay: HLA/peptide complex stability assay, RMA-S cells transfected with HLA-B*2709; settings: for fluorescence index, B*2709: peptide 200 µM
T5 construct: expressed in transfected cells; host or cells: RMA-S (TAP-deficient murine cell line)

[1] = mean ± S.D. of three to five independent experiments, SD
[2] = relative affinity (EC50 class), B*2705
[3] = relative affinity (EC50 class), B*2703
[4] = relative affinity (EC50 class), B*2704
[5] = relative affinity (EC50 class), B*2706
[6] = relative affinity (EC50 class), B*2701
[7] = relative affinity (EC50 class), B*2702
[8] = relative affinity (EC50 class), B*2709

Sequence | relative MHC class I affinity according to the EC50 value, in words (high, medium, low) (HLA-B*2705) | EC50 (HLA-B*2705; EC50, B*2705, SD) | EC50 (HLA-B*2703; EC50, B*2703, SD) | EC50 (HLA-B*2703; [3]) | EC50 (HLA-B*2704; EC50, B*2704, SD) | EC50 (HLA-B*2704; [4]) | EC50 (HLA-B*2706; [5]) | EC50 (HLA-B*2701; read-out: EC50, B*2701) | EC50 (HLA-B*2701; [6]) | EC50 (HLA-B*2702; [7]) | EC50 (HLA-B*2709; EC50, B*2709, SD) | EC50 (HLA-B*2709; [8]) | EC50 (HLA-B*2706; EC50, B*2706, SD) | EC50 (HLA-B*2702; EC50, B*2702, SD) | further results
ARANNVLKNEM [A1-NP 184-194, monosubstituted Ala analog of HRSV NP 184-194, […]] | – | – | – | – | – | – | – | – | – | – | – | – | – | – | fluorescence index, B*2705 (HLA-B*2705; [1]): 2.4±0.3; fluorescence index, B*2703 (HLA-B*2703; [1]): 1.4±0.1; fluorescence index, B*2704 (HLA-B*2704; [1]): 2.2±0.2; fluorescence index, B*2706 (HLA-B*2706; [1]): 3.0±0.3; fluorescence index, B*2701 (HLA-B*2701; [1]): 2.0±0.1; fluorescence index, B*2702 (HLA-B*2702; [1]): 2.0±0.3; fluorescence index, B*2709 (HLA-B*2709; [1]): 1.8±0.1
ARYKGLLPKDI [A1-NP 195-205, monosubstituted Ala analog of HRSV NP 195-205, […]] | – | – | – | – | – | – | – | – | – | – | – | – | – | – | fluorescence index, B*2705 (HLA-B*2705; [1]): 2.4±0.3; fluorescence index, B*2703 (HLA-B*2703; [1]): 2.1±0.2; fluorescence index, B*2704 (HLA-B*2704; [1]): 2.2±0.3; fluorescence index, B*2706 (HLA-B*2706; [1]): 2.7±0.3; fluorescence index, B*2701 (HLA-B*2701; [1]): 1.9±0.1; fluorescence index, B*2702 (HLA-B*2702; [1]): 1.8±0.1; fluorescence index, B*2709 (HLA-B*2709; [1]): 1.8±0.2
GRNEVFSNK [L 2089-2097] | medium | 32 ± 6 µM | 71 ± 28 µM | 61 to 200 µM | 169 ± 57 µM | 61 to 200 µM | > 200 µM | > 200 µM | > 200 µM | > 200 µM | 68 ± 24 µM | 61 to 200 µM | – | – | EC50 (HLA-B*2705; [2]): 20 to 60 µM; EC50 (HLA-B*2706; EC50, B*2706): > 200 µM; EC50 (HLA-B*2702; EC50, B*2702): > 200 µM
HRFIYLINH [NS2 37-45] | high | 7 ± 4 µM | 10 ± 5 µM | – | 78 ± 33 µM | 61 to 200 µM | 20 to 60 µM | > 200 µM | > 200 µM | 61 to 200 µM | 33 ± 9 µM | 20 to 60 µM | 45 ± 19 µM | 77 ± 14 µM | –
HRQDINGKEM [NP 100-109] | medium | 50 ± 15 µM | 96 ± 43 µM | 61 to 200 µM | 67 ± 27 µM | 61 to 200 µM | – | – | > 200 µM | 61 to 200 µM | 24 ± 7 µM | 20 to 60 µM | 3 ± 2 µM | 132 ± 53 µM | EC50 (HLA-B*2705; [2]): 20 to 60 µM; EC50 (HLA-B*2701; EC50, B*2701): > 200 µM
KRAVGIGAL [HIV gp160 500-508, reference compound] | – | – | – | – | – | – | – | – | – | – | – | – | – | – | EC50 (HLA-B*2705; Table 2, peptide concentration at 50% of maximum fluorescence, range 0.01–200 µM, transfected RMA-S cells, flow cytometry, mean ± S.D. of three to five independent experiments, - = no statistical difference in fluorescence index to negative control, SD, read-out: EC50, B*2705): 12 ± 3 µM; EC50 (HLA-B*2703; Table 2, peptide concentration at 50% of maximum fluorescence, range 0.01–200 µM, transfected RMA-S cells, flow cytometry, mean ± S.D. of three to five independent experiments, - = no statistical difference in fluorescence index to negative control, SD, read-out: EC50, B*2703): 14 ± 7 µM; EC50 (HLA-B*2704; Table 2, peptide concentration at 50% of maximum fluorescence, range 0.01–200 µM, transfected RMA-S cells, flow cytometry, mean ± S.D. of three to five independent experiments, - = no statistical difference in fluorescence index to negative control, SD, read-out: EC50, B*2704): 24 ± 8 µM; EC50 (HLA-B*2704; Table 3, classes of EC50 from stabilization assay in transfected RMA-S cells, read-out: relative affinity (EC50 class), B*2704): 20 to 60 µM; EC50 (HLA-B*2706; Table 2, peptide concentration at 50% of maximum fluorescence, range 0.01–200 µM, transfected RMA-S cells, flow cytometry, mean ± S.D. of three to five independent experiments, - = no statistical difference in fluorescence index to negative control, SD, read-out: EC50, B*2706): 1 ± 1 µM; EC50 (HLA-B*2701; Table 2, peptide concentration at 50% of maximum fluorescence, range 0.01–200 µM, transfected RMA-S cells, flow cytometry, mean ± S.D. of three to five independent experiments, - = no statistical difference in fluorescence index to negative control, SD, read-out: EC50, B*2701): 17 ± 3 µM; EC50 (HLA-B*2702; Table 2, peptide concentration at 50% of maximum fluorescence, range 0.01–200 µM, transfected RMA-S cells, flow cytometry, mean ± S.D. of three to five independent experiments, - = no statistical difference in fluorescence index to negative control, SD, read-out: EC50, B*2702): 16 ± 6 µM; EC50 (HLA-B*2709; Table 2, peptide concentration at 50% of maximum fluorescence, range 0.01–200 µM, transfected RMA-S cells, flow cytometry, mean ± S.D. of three to five independent experiments, - = no statistical difference in fluorescence index to negative control, SD, read-out: EC50, B*2709): 8 ± 1 µM
KRLPADVLKK [M2 150-159] | high | 18 ± 3 µM | 78 ± 10 µM | 61 to 200 µM | 73 ± 9 µM | 61 to 200 µM | > 200 µM | > 200 µM | > 200 µM | 61 to 200 µM | 22 ± 9 µM | 20 to 60 µM | – | 136 ± 63 µM | EC50 (HLA-B*2706; EC50, B*2706): > 200 µM
KRYKGLLPKDI [NP 195-205] | high | 7 ± 5 µM | 20 ± 11 µM | – | 16 ± 3 µM | – | – | – | – | – | 7 ± 2 µM | – | 1 ± 1 µM | 9 ± 1 µM | EC50 (HLA-B*2701; EC50, B*2701, SD): 8 ± 1 µM
